Data from patent US9157077B2, “Aminopyrimidine kinase inhibitors” (Jasco Pharmaceuticals, LLC, priority 2009, dated 2015).
Read-outs that look alike come from different tables or passages of the source.

Columns and labels:
[1] = target: Enzyme (kinases of Table 30); experiment: IC50 of Compound (nM) (ATP present at Km of enzyme), Table 30; assay type: biochemical; settings: ATP present at Km of enzyme
[2] = test system: Enzyme (kinases of Table 29); experiment: Percent Activity of Enzyme When Treated with 300 nM of Compound (ATP present at Km of enzyme), Table 29; assay type: biochemical
[3] = target: Enzyme (kinases of Table 29) (Homo sapiens, UniProt P78368); experiment: as above; assay type: biochemical; settings: CK1γ2(h)
Enzyme (kinases of Table 29) (Homo sapiens, UniProt P78368), sequence (P78368 whole entry): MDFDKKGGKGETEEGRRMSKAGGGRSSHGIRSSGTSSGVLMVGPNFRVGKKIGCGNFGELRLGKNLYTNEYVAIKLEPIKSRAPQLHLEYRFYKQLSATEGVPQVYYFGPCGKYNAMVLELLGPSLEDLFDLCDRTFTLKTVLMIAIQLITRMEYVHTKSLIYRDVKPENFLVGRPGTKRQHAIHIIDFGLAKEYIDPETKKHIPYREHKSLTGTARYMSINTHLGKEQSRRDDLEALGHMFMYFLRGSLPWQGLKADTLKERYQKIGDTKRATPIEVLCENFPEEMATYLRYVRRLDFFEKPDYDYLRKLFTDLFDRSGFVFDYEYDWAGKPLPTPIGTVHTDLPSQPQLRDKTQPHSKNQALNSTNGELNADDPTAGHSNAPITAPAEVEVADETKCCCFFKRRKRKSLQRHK

[4] = target: Enzyme (kinases of Table 30) (Homo sapiens, UniProt Q9P1W9); experiment: IC50 of Compound (nM) (ATP present at Km of enzyme), Table 30; assay type: biochemical; settings: Pim-2(h), ATP present at Km of enzyme; read-out: IC50 of Compound, Pim-2(h)
Enzyme (kinases of Table 30) (Homo sapiens, UniProt Q9P1W9), sequence (Q9P1W9 whole entry): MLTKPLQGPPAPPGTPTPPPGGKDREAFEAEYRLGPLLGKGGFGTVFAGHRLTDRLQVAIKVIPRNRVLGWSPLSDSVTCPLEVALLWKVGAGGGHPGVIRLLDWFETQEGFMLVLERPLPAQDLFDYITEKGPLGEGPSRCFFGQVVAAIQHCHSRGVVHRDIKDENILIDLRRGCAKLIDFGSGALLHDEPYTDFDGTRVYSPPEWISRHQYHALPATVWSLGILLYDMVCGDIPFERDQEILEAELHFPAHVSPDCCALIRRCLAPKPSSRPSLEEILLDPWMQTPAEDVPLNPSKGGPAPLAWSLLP

[5] = target: T1, Enzyme (kinases of Table 30) (Homo sapiens, UniProt P68400); experiment: as above; assay type: biochemical; settings: CK2(h), ATP present at Km of enzyme
T1 construct: IC50 of Compound, CK2(h); other: CK2(h), ATP present at Km of enzyme
T1 sequence (P68400 whole entry): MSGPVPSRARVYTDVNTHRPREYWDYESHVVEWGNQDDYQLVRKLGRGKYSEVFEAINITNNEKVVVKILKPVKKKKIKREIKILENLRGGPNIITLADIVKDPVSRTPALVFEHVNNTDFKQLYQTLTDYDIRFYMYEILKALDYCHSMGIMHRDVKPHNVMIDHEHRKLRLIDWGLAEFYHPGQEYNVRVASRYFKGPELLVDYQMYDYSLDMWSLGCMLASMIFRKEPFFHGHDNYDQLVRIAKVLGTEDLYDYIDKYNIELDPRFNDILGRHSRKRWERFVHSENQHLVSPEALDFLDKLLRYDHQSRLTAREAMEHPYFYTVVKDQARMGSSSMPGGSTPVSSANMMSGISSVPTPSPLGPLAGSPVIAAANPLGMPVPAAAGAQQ

[6] = target: Enzyme (kinases of Table 30) (Homo sapiens, UniProt P11309); experiment: as above; assay type: biochemical; settings: Pim-1(h), ATP present at Km of enzyme; read-out: IC50 of Compound, Pim-1(h)
Enzyme (kinases of Table 30) (Homo sapiens, UniProt P11309), sequence (P11309 whole entry): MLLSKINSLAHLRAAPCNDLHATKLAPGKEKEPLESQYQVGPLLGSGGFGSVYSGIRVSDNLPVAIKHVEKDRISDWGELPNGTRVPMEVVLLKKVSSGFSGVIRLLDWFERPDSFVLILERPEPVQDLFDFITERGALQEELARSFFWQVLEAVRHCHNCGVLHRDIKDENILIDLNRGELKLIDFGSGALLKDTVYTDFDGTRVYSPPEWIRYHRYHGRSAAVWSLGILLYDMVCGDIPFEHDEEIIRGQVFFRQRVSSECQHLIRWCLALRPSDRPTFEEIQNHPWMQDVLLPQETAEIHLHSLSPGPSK

[7] = target: T2, Enzyme (kinases of Table 30) (Homo sapiens, UniProt P78368); experiment: as above; assay type: biochemical; settings: CK1γ2(h), ATP present at Km of enzyme
T2 construct: IC50 of Compound, CK1γ2(h); other: CK1γ2(h), ATP present at Km of enzyme
T2 sequence (P78368 whole entry): as the sequence (P78368 whole entry) above

[8] = target: Enzyme (kinases of Table 30) (Homo sapiens, UniProt Q86V86); experiment: as above; assay type: biochemical; settings: Pim-3(h), ATP present at Km of enzyme; read-out: IC50 of Compound, Pim-3(h)
[9] = Hepatic microsomal stability, human; assay type: in vitro ADME
Description: (§1) Hepatic microsomal assays were performed with 4981, 4985, 4991 and 4999 in human and rat (Sprague-Dawley). Protein concentrations of 0.4 (human) and 0.2 mg/mL (rat) with an NADPH regenerating cofactor system (2.6 mM NADP+, 6.6 mM glucose-6-phosphate, 0.8 U/mL glucose-6-phosphate dehydrogenase, and 6.6 mM magnesium chloride) were used. A 100 μM 20% DMSO/80% acetonitrile working stock of each of the compounds was diluted 100 fold resulting in 1 μM compound/1% final organic reaction concentrations. Time points were removed at 0 and 60 minutes. At each time point, 100 μL of the incubation suspension was added to 200 μL of acetonitrile containing internal standard (tolbutamide), followed by centrifugation at 3,220 rcf for 10 minutes. Two hundred (200)μL of the resulting supernatants were removed, dried under nitrogen and reconstituted in 100 μL of 2 mM ammonium acetate, 0.1% formic acid in 50% methanol prior to analysis by LC/MS/MS. Testosterone and dexamethasone were used as reference compounds.

[10] = PAMPA, 5 h, 10 μM, pH 7.4
Description: The target concentration in the assay was 10 μM, prepared by diluting (1000-fold) the 10 mM stock solutions in DMSO into PBS, pH 7.4. The final DMSO concentration was 0.1%. The 10 μM solutions were added, 300 μL, to wells in the donor plate. The receiver plate, which contained 200 μL of PBS, pH 7.4 per well, was placed in the donor plate and the assembly was incubated for 5 hours at ambient temperature. At the end of the incubation period the plates were separated and the compound concentrations in each solution were determined by LC/MS/MS. The assay was performed in triplicate.
Where: • C0 is the initial concentration in the donor well (μM) • CD(t) is the concentration in the donor well after incubation (μM) • CA(t) is the concentration in the acceptor well after incubation (μM) • VD is the volume in the donor well (0.3 mL) • VA is the volume in the acceptor well (0.2 mL) • CE is (CD(t)VD+CA(t)VA)/(VD+VA) • A is the filter area (0.3 cm2) • t is the incubation time (18,000 s).

[11] = Hepatic microsomal stability, rat; assay type: in vitro ADME, rat (Sprague-Dawley)
Description: as §1

MDA-MB-468 cells = experiment: Cell proliferation study, inhibition of MDA-MB-468 cells (MTS); assay type: cell-based; settings: Homo sapiens, 72 hours, read-out: Inhibition Rate %
Description: Inhibition of MDA-MB-468 Cells
(§2) • Cells: MDA-MB-468 cells, ATCC Passage unknown, Mycoplasma free. • Medium: RPMI-1640 Medium (GIBCO Cat#22400121) supplemented with 10% fetal bovine serum (Hyclone Cat#SH30396.03). • Seeding: 2,000 cells/well (100 μL) into 96-well plates, incubated overnight at 37° C. in a humidified 5% CO2 atmosphere. • Treatment: Test compounds were first diluted 333-fold in the medium. Fifty microliters (50 μL) of diluted compounds were added into each well (i.e., another 3-fold dilution). The final concentration of test compounds was 10 μM. The cells were incubated for 72 hours after addition of the test compounds. • MTS: Added 20 μL of MTS solution (Promega Cat #G5430) into each well and incubated for 4 hours. • Calculation: % of inhibition+(AVE zero ctrl−AVE compound)/AVE zero ctrl*100.

OVCAR-3 cells = experiment: Cell proliferation study, inhibition of OVCAR-3 cells (MTS); assay type: cell-based; settings: Homo sapiens, 72 hours, read-out: Inhibition Rate %
Description: Inhibition of OVCAR-3 Cells
as §2, with “OVCAR-3” for “MDA-MB-468”, “4,” for “unknown,”

Jurkat cells = experiment: Cell proliferation study, inhibition of Jurkat cells (MTS); assay type: cell-based; settings: Homo sapiens, 72 hours, read-out: Inhibition Rate %
Description: Inhibition of Jurkat Cells
as §2, with “Jurkat” for “MDA-MB-468”, “serum(Hyclone” for “serum (Hyclone”, “5,000” for “2,000”

PC-3 cells = experiment: Cell proliferation study, inhibition of PC-3 cells (MTS); assay type: cell-based; settings: Homo sapiens, 72 hours, read-out: Inhibition Rate %
Description: Inhibition of PC-3 Cells:
as §2, with “PC-3” for “MDA-MB-468”, “DMEM” for “RPMI-1640”, “Cat#11995073)” for “Cat#22400121)”, “3,000” for “2,000”

HCT116 cells = experiment: Cell proliferation study, inhibition of HCT116 cells (MTS); assay type: cell-based; settings: Homo sapiens, 72 hours, read-out: Inhibition Rate %
Description: Inhibition of HCT116 Cells
• Cells: HCT116 cells, ATCC Passage unknown, Mycoplasma free. • Medium: DMEM Medium (GIBCO Cat#11995073) supplemented with 10% fetal bovine serum (Hyclone Cat#SH30396.03). • Seeding: 750 cells/well (100 μL) into 96-well plates, incubated overnight at 37° C. in a humidified 5% CO2 atmosphere. • Treatment: Test compounds were first diluted 333-fold in the medium. Fifty microliters (50 μL) of diluted compounds were added into each well (i.e., another 3-fold dilution). The final concentration of test compounds was 10 μM. The cells were incubated for 72 hours after addition of the test compounds. • MTS: Added 20 μL of MTS solution (Promega Cat #G5430) into each well and incubated for 4 hours. • Measurement: Absorbance at 490 nm using MD Spectramax Plus 384 spectrophotometer. • Calculation: % of inhibition+(AVE zero ctrl−AVE compound)/AVE zero ctrl*100.

LNCaP cells = experiment: Cell proliferation study, inhibition of LNCaP cells (MTS); assay type: cell-based; settings: Homo sapiens, 72 hours, read-out: Inhibition Rate %
Description: Inhibition of LNCaP Cells
as §2, with “LNCaP,” for “MDA-MB-468 cells,”, “3,000” for “2,000”

Work on CN(C)CCOc1cc(/C=C2\SC(=O)NC2=O)nc(N2CCN(S(=O)(=O)c3ccccc3)CC2)n1 [compound 214, (Z)-5-((6-(2-(dimethylamino)ethoxy)-2-(4-(phenylsulfonyl)piperazin-1-yl)pyrimidin-4-yl)methylene)thiazolidine-2,4-dione] yielded an IC50 ([1]; Pim-1(h), read-out: IC50 of Compound, Pim-1(h)) of 95 nM, an IC50 ([1]; Pim-2(h), read-out: IC50 of Compound, Pim-2(h)) of 35 nM and an IC50 ([1]; Pim-3(h), read-out: IC50 of Compound, Pim-3(h)) of 60 nM. For the same molecule, the “Percent Activity of Enzyme, CK1(y)” value ([2]; CK1(y)) was 79%, the “Percent Activity of Enzyme, CK2(h)” value ([2]; CK2(h)) was 77% and the “Percent Activity of Enzyme, Pim-1(h)” value ([2]; Pim-1(h)) was 25%. The “Percent Activity of Enzyme, Pim-2(h)” value ([2]; Pim-2(h)) was 13%, the “Percent Activity of Enzyme, Pim-3(h)” value ([2]; Pim-3(h)) was 16% and the “Percent Activity of Enzyme, CK1γ2(h)” value [3] was 41%.
Molecule COc1cccc2ccc(CNCC3CCN(c4nccc(/C=C5\SC(=O)NC5=O)n4)CC3)nc12 [compound 189] has an IC50 [4] of 9 nM, an IC50 [5] of 364 nM and an IC50 [6] of 4 nM. For the same molecule, the IC50 [7] was 164 nM and the IC50 [8] was 4 nM.
Molecule O=C1NC(=O)/C(=C/c2ccnc(N3CCC(c4nc(-c5ccncc5)no4)CC3)n2)S1 [compound 86] has an IC50 [7] of 86 nM.
For C[C@@H]1C[C@H]2[C@@H]3CCC4=CC(=O)C=C[C@]4(C)[C@@]3(F)[C@@H](O)C[C@]2(C)[C@@]1(O)C(=O)CO [Dexamethasone], the “% remaining after incubation, Human Microsomes” value ([9]; human, microsomes, 1 h, 1 μM) was 85%, the “Mass Retention R” value [10] was 9% and the “% remaining after incubation, Rat Microsomes” value ([11]; Sprague-Dawley, rat, microsomes, 1 h, 1 μM) was 91%.
In the case of C[C@]12CC[C@H]3[C@@H](CCC4=CC(=O)CC[C@@]43C)[C@@H]1CC[C@@H]2O [Testosterone], the “% remaining after incubation, Human Microsomes” value ([9]; 1 μM compound, 0.4 mg/mL protein, NADPH regenerating system, 60 minutes) is reported as 42% and the “% remaining after incubation, Rat Microsomes” value ([11]; 1 μM compound, 0.2 mg/mL protein, NADPH regenerating system, 60 minutes) is reported as 0.6%.
With Nc1ccn([C@@H]2O[C@H](CO)[C@@H](O)C2(F)F)c(=O)n1 [Gemcitabine, gemcitabine] the inhibition at 1.2 µM (MDA-MB-468 cells; positive control 1.2 μM) was 16.4%, the inhibition at 3.7 µM (MDA-MB-468 cells; positive control 3.7 μM) was 31.2% and the inhibition at 11.1 µM (MDA-MB-468 cells; positive control 11.1 μM) was 80.7%. For the same molecule, the inhibition at 33.3 µM (MDA-MB-468 cells; positive control 33.3 μM) was 91.7%, the inhibition at 100 µM (MDA-MB-468 cells; positive control 100 μM) was 88.8% and the inhibition at 300 µM (MDA-MB-468 cells; positive control 300 μM) was 94.9%. The inhibition at 1.2 µM (OVCAR-3 cells; positive control 1.2 μM) was 18.2%, the inhibition at 3.7 µM (OVCAR-3 cells; positive control 3.7 μM) was 25% and the inhibition at 11.1 µM (OVCAR-3 cells; positive control 11.1 μM) was 31.5%. The inhibition at 33.3 µM (OVCAR-3 cells; positive control 33.3 μM) was 40.8%, the inhibition at 100 µM (OVCAR-3 cells; positive control 100 μM) was 85.1% and the inhibition at 300 µM (OVCAR-3 cells; positive control 300 μM) was 87%. It also gave an inhibition at 1.2 µM (Jurkat cells; positive control 1.2 μM) of 17.4%, an inhibition at 3.7 µM (Jurkat cells; positive control 3.7 μM) of 63.9% and an inhibition at 11.1 µM (Jurkat cells; positive control 11.1 μM) of 84.7%. For the same molecule, the inhibition at 33.3 µM (Jurkat cells; positive control 33.3 μM) was 105%, the inhibition at 100 µM (Jurkat cells; positive control 100 μM) was 106% and the inhibition at 300 µM (Jurkat cells; positive control 300 μM) was 104%. The inhibition at 1.2 µM (PC-3 cells; positive control 1.2 μM) was 6.5%, the inhibition at 3.7 µM (PC-3 cells; positive control 3.7 μM) was 6.7% and the inhibition at 11.1 µM (PC-3 cells; positive control 11.1 μM) was 20.9%. The inhibition at 33.3 µM (PC-3 cells; positive control 33.3 μM) was 47.4%, the inhibition at 100 µM (PC-3 cells; positive control 100 μM) was 55.7% and the inhibition at 300 µM (PC-3 cells; positive control 300 μM) was 79.5%. It also gave an inhibition at 1.2 µM (HCT116 cells; HCT-116, positive control 1.2 μM) of 50.1%, an inhibition at 3.7 µM (HCT116 cells; HCT-116, positive control 3.7 μM) of 79.3% and an inhibition at 11.1 µM (HCT116 cells; HCT-116, positive control 11.1 μM) of 85.6%. It also gave an inhibition at 33.3 µM (HCT116 cells; HCT-116, positive control 33.3 μM) of 85.6%, an inhibition at 100 µM (HCT116 cells; HCT-116, positive control 100 μM) of 85.4% and an inhibition at 300 µM (HCT116 cells; HCT-116, positive control 300 μM) of 87.6%. It also gave an inhibition at 1.2 µM (LNCaP cells; positive control 1.2 μM) of 14.5%, an inhibition at 3.7 µM (LNCaP cells; positive control 3.7 μM) of 60.9% and an inhibition at 11.1 µM (LNCaP cells; positive control 11.1 μM) of 90.2%. For the same molecule, the inhibition at 33.3 µM (LNCaP cells; positive control 33.3 μM) was 92.9%, the inhibition at 100 µM (LNCaP cells; positive control 100 μM) was 90.7% and the inhibition at 300 µM (LNCaP cells; positive control 300 μM) was 90.1%.
Nc1cccc2c1CCN(c1nccc(/C=C3\SC(=O)NC3=O)n1)C2 [compound 120] showed an IC50 [4] of 225 nM, an IC50 [5] of 214 nM and an IC50 [6] of 170 nM. The IC50 [7] was 676 nM and the IC50 [8] was 271 nM.
With O=C1NC(=O)/C(=C/c2ccnc(N3CCC(c4c[nH]c5ccccc45)CC3)n2)S1 [compound 94] the IC50 [7] was 38 nM.
